Source: patent US20240224994A1, “INSECT REPELLANT FORMULATION AND METHOD OF USING SAME” (United Industries Corporation, priority 2021, published 2024)

Tested on: Deer Ticks, Ixodes ricinus
Assay: Efficacy of nootkatone formulations against ticks on human forearm skin (complete protection time)
Type: in vivo
Details: FIG. 1; human skin test
Protocol: The objective of the study was estimate the complete protection time (CPT) of the various repellent formulations against ticks. Complete protection time (CPT) was measured as the length of time from initial application to the First Confirmed Crossing (FCC).
A number of 32 volunteers were selected based on signing of informed consent form and passing the sensitivity test, 24-48 hours before the initiation of the experiment. The volunteers were briefed about the experiment in detail prior to signing the consent form. Test volunteers were instructed to avoid alcohol, tobacco, caffeine, and fragrance products (e.g., perfume, cologne, hair spray, lotion, etc.) at least for 12 hours before, and during the test.
The test substance/positive control (liquid) was applied at 1 ml/600 cm^2±10% deviation. […] The treatment area was calculated by measuring the circumference (cm) of the wrist (B), the circumference (cm) at the elbow-cubital fossa (C) when the arm is extended, and the distance (cm) from the elbow to the wrist (D) The surface area (in cm^2) of skin was calculated by: […]
Fresh ticks were exposed to the treated area one at a time, at regular intervals of 30 minutes until the first crossing or observation were recorded as “not repelled.” The cycle continues until efficacy failure or the end of the study, whichever occurs first. […]

OCc1ccccc1 [benzyl alcohol]
effect of ingredient on CPT of the compositions: effective in prolonging the CPT
